Measurements taken from ChEMBL document CHEMBL6114949, “Synthesis and physiological effects of new 4-aminophenol derivatives as paracetamol analogues” (Bioorg Med Chem Lett, 2025).
Calls of active or inactive are those of the source. The rule behind the calls is not given here.

Columns and labels:
Rattus norvegicus [1] = assay: Antipyretic activity against LPS-induced polyphasic febrile response in rats assessed as return of body temperature to background value at 80 mg/kg, po treated 40 mins prior to LPS addition and measured after 245 mins; assay type: functional, organism-based; settings: time 285.0 min
Rattus norvegicus [2] = assay: Antipyretic activity against LPS-induced polyphasic febrile response in rats assessed as change in core body temperature at 80 mg/kg, po treated 40 mins prior to LPS addition and measured after 10 mins during phase 1 (reference value: 0.85 deg C); assay type: functional, organism-based; settings: time 50.0 min
Rattus norvegicus [3] = assay: Antinociceptive activity in zymosan-induced rat arthritis model assessed as nociceptive response inhibition at 80 mg/kg, ig administered once daily for 7 days and measured 1 hr post-zymosan challenge on day 7 by Randall-Selitto test (reference value: -34.6%); assay type: functional; settings: po, 168 h, time 7 day
Rattus norvegicus [4] = assay: Antinociceptive activity in zymosan-induced rat model of thermal nociceptive hypersensitivity assessed as nociceptive response inhibition at 80 mg/kg, ig administered once daily for 7 days and measured 1 hr post-zymosan challenge on day 7 by hot-plate test (reference value: -42.4%); assay type: functional; settings: po, 168 h, time 7 day
[5] = Hepatotoxicity in zymosan-induced rat arthritis model assessed as change in hepatocyte cytoplasmic appearance at 180 mg/kg, ig administered once daily for 7 days by hematoxylin-eosin staining based histological analysis; assay type: toxicity, organism-based, Liver; settings: in vivo, po, 168 h, time 7 day
[6] = Hepatotoxicity in zymosan-induced rat arthritis model assessed as effect on sinusoids arrangement at 180 mg/kg, ig administered once daily for 7 days by hematoxylin-eosin staining based histological analysis; assay type: toxicity, organism-based, Liver; settings: in vivo, po, 168 h, time 7 day
[7] = Hepatotoxicity in zymosan-induced rat arthritis model assessed as change in hepatocyte karyoplasm at 180 mg/kg, ig administered once daily for 7 days by hematoxylin-eosin staining based histological analysis; assay type: toxicity, organism-based, Liver; settings: in vivo, po, 168 h, time 7 day
Rattus norvegicus [8] = assay: Antipyretic activity against LPS-induced polyphasic febrile response in rats assessed as change in core body temperature at 180 mg/kg, po treated 40 mins prior to LPS addition and measured after 160 mins during phase 1 (reference value: 0.85 deg C); assay type: functional, organism-based; settings: time 200.0 min
[9] = Hepatotoxicity in zymosan-induced rat arthritis model assessed as change in hepatocyte nucleus size at 180 mg/kg, ig administered once daily for 7 days by hematoxylin-eosin staining based histological analysis; assay type: toxicity, organism-based, Liver; settings: in vivo, po, 168 h, time 7 day
[10] = Hepatotoxicity in zymosan-induced rat arthritis model assessed as change in hepatocyte shape at 180 mg/kg, ig administered once daily for 7 days by hematoxylin-eosin staining based histological analysis; assay type: toxicity, organism-based, Liver; settings: in vivo, po, 168 h, time 7 day
[11] = Hepatotoxicity in zymosan-induced rat arthritis model assessed as effect on sinusoids elongation at 180 mg/kg, ig administered once daily for 7 days by hematoxylin-eosin staining based histological analysis; assay type: toxicity, organism-based, Liver; settings: in vivo, po, 168 h, time 7 day
Rattus norvegicus [12] = assay: Antipyretic activity against LPS-induced polyphasic febrile response in rats assessed as suppression of rise in core body temperature at 180 mg/kg, po treated 40 mins prior to LPS addition and measured after 160 mins relative to control; assay type: functional; settings: time 200 min, 3.333 h
[13] = Hepatotoxicity in zymosan-induced rat arthritis model assessed as appearance of vacuoles in hepatocyte cytoplasm at 180 mg/kg, ig administered once daily for 7 days by hematoxylin-eosin staining based histological analysis; assay type: toxicity, organism-based, Liver; settings: in vivo, po, 168 h, time 7 day
[14] = Hepatotoxicity in zymosan-induced rat arthritis model assessed as change in shape of liver portal tracts at 180 mg/kg, ig administered once daily for 7 days by hematoxylin-eosin staining based histological analysis; assay type: toxicity, organism-based; settings: in vivo, po, 168 h, time 7 day
Rattus norvegicus [15] = assay: Antipyretic activity against LPS-induced polyphasic febrile response in rats assessed as suppression of rise in core body temperature at 180 mg/kg, po treated 40 mins prior to LPS addition and measured after 10 mins; assay type: functional, organism-based; settings: time 50.0 min
[16] = Hepatotoxicity in zymosan-induced rat arthritis model assessed as change in shape of liver central veins at 180 mg/kg, ig administered once daily for 7 days by hematoxylin-eosin staining based histological analysis; assay type: toxicity, organism-based; settings: in vivo, po, 168 h, time 7 day
Rattus norvegicus [17] = assay: Antinociceptive activity in zymosan-induced rat arthritis model assessed as nociceptive response inhibition at 180 mg/kg, ig administered once daily for 7 days and measured 1 hr post-zymosan challenge on day 7 by Randall-Selitto test (reference value: -34.6%); assay type: functional; settings: po, 168 h, time 7 day
Rattus norvegicus [18] = assay: Antipyretic activity against LPS-induced polyphasic febrile response in rats assessed as suppression of rise in core body temperature at 180 mg/kg, po treated 40 mins prior to LPS addition and measured after 200 mins; assay type: functional, organism-based; settings: time 240.0 min
[19] = Hepatotoxicity in zymosan-induced rat arthritis model assessed as disruption of hepatocyte membrane at 180 mg/kg, ig administered once daily for 7 days by hematoxylin-eosin staining based histological analysis; assay type: toxicity, organism-based, Liver; settings: in vivo, po, 168 h, time 7 day
[20] = Hepatotoxicity in zymosan-induced rat arthritis model assessed as effect on beam structure of liver at 180 mg/kg, ig administered once daily for 7 days by hematoxylin-eosin staining based histological analysis; assay type: toxicity, organism-based; settings: in vivo, po, 168 h, time 7 day
Rattus norvegicus [21] = assay: Antinociceptive activity in zymosan-induced rat model of thermal nociceptive hypersensitivity assessed as nociceptive response inhibition at 180 mg/kg, ig administered once daily for 7 days and measured 1 hr post-zymosan challenge on day 7 by hot-plate test (reference value: -42.4%); assay type: functional; settings: po, 168 h, time 7 day
[22] = Hepatotoxicity in zymosan-induced rat arthritis model assessed as effect on general architecture of liver at 180 mg/kg, ig administered once daily for 7 days by hematoxylin-eosin staining based histological analysis; assay type: toxicity, organism-based; settings: in vivo, po, 168 h, time 7 day

With CC(=O)Nc1ccc(O)cc1 [ACETAMINOPHEN] the Activity (Rattus norvegicus [1]) was “Active”, the ΔTm (Rattus norvegicus [2]) was 0.34 °C and the inhibition in vivo at 80 mg/kg (Rattus norvegicus [3]) was 28.5%. The inhibition in vivo at 80 mg/kg (Rattus norvegicus [4]) was 53%.

For CCCCCCCC(=O)Nc1ccc(OCC(=O)NCCO)cc1, the Activity [5] was “Non-toxic”, the Activity [6] was “Non-toxic” and the Activity [7] was “Non-toxic”. For the same compound, the ΔTm (Rattus norvegicus [8]) was 0.28 °C, the Activity [9] was “Non-toxic” and the Activity [10] was “Non-toxic”. The Activity [11] was “Non-toxic”, the “fold change (FC)” value (Rattus norvegicus [12]) was 3 and the Activity [13] was “Non-toxic”. For the same compound, the Activity [14] was “Non-toxic”, the Activity (Rattus norvegicus [15]) was “Active” and the Activity [16] was “Non-toxic”. For the same compound, the inhibition in vivo at 180 mg/kg (Rattus norvegicus [17]) was 48.1%, the Activity (Rattus norvegicus [18]) was “Active” and the Activity [19] was “Non-toxic”. For the same compound, the Activity [20] was “Non-toxic”, the inhibition in vivo at 180 mg/kg (Rattus norvegicus [21]) was 12.3% and the Activity [22] was “Non-toxic”.
